Measurements published in patent US20240299486A1, “ADDRESSING INJECTION SITE REACTIONS ASSOCIATED WITH THE ADMINISTRATION OF ELAMIPRETIDE” (STEALTH BIOTHERAPEUTICS INC., priority 2022, published 2024).
“Also recorded” adds a separate entry of the source.

Legend:
healthy subjects [1] = assay: Phase 1 crossover study: clinically assessed injection site reactions; settings: for Clinically assessed Erythema or redness, (%) of Reported Reactions / Clinically assessed Erythema or redness, Number of Reported Reactions / Clinically assessed Induration or swelling, (%) of Reported Reactions / Clinically assessed Induration or swelling, Number of Reported Reactions / Clinically assessed Pain or tenderness, (%) of Reported Reactions / Clinically assessed Pain or tenderness, Number of Reported Reactions / Clinically assessed Pruritis, (%) of Reported Reactions / Clinically assessed Pruritis, Number of Reported Reactions: 60 mg SQ elamipretide with or without the intervention, across all timepoints, all participants, n = 80; for Overall effect of the intervention on ISRs compared to elamipretide alone: clinical and self-assessments, 60 mg SQ elamipretide, vs Arm 1 (no intervention)
Description: (§1) • This Phase 1, open-label, 6-arm crossover study included 10 healthy subjects ≥18 and ≤65 years of age. • All subjects received 60 mg of SQ elamipretide to alternating quadrants of the abdomen on each of 6 occasions (FIG. 3), with or without the interventions listed in Table 2. • For each treatment arm, ISR clinical and self-assessments were performed pre-elamipretide administration and at 0.5, 1, 2, 4, 6, 12, 24, and 48 hours after each elamipretide dose. • Blood samples for plasma concentrations of elamipretide and its metabolites were also collected pre-dose and at 0.25, 0.5, 1, 2, 4, and 6 hours post-elamipretide dose. • Primary endpoints consisted of comparisons of the grading from the clinical assessments and the self-assessments of each ISR parameter following administration of elamipretide with each separate intervention versus that of elamipretide alone. • Secondary endpoints consisted of comparison of various pharmacokinetic (PK) parameters and adverse events following administration of elamipretide with each separate intervention versus that of elamipretide alone.
(§2) After the screening period (up to 28 days) in this phase 1, open-label, 4-week, 6-part, crossover study, all eligible subjects received 60 mg (0.75 mL) of SC elamipretide to alternating quadrants of the abdomen on each of 6 occasions, with or without potential ISR interventions. The first treatment arm (Arm 1) commenced on Day 1 with administration of elamipretide only, followed by the remaining treatment arms (Arms 2-6) with the following potential mitigations: mometasone furoate, 0.1% ointment, applied once under a hydrocolloid occlusive dressing (DuoDERM Extra Thin) 7 days prior to elamipretide administration (Arm 2); ice application at the elamipretide injection site 5 minutes pre- and post-drug administration (Arm 3); tacrolimus 0.1% ointment applied 15 minutes pre-drug dosing (Arm 4); doxepin 5% cream applied 15 minutes pre-elamipretide administration (Arm 5); and diphenhydramine 50 mg orally taken 2 hours prior to administration (Arm 6). For each treatment arm, blood samples for plasma concentrations of elamipretide and its metabolites were collected pre-dose and at 0.25, 0.5, 1, 2, 4, and 6 hours post-elamipretide dose. Vital signs were recorded pre-dose and at 0.5 and 6 hours post-elamipretide administration. ISR clinical and self-assessments were performed pre-elamipretide administration and at 0.5, 1, 2, 4, 6, 12, 24, and 48 hours after each elamipretide dose. Injection sites were photographed at 0.5, 1, 2, 4, and 12 hours post-elamipretide dose.
(§3) The primary endpoints of this study were comprised of the following efficacy measures: clinical assessments and subject self-assessments. Specifically, the primary endpoints consisted of comparisons of the grading of each ISR parameter following administration of elamipretide with each separate intervention versus the grading of each ISR parameter following administration of elamipretide alone. For clinical assessments, the clinical staff used a standard procedure adapted from the Division of Aids Table for Grading the Severity of Adult and Pediatric Adverse Events to score pain, erythema, induration, and pruritus using a 4-point scale based on severity (0=None, 1=Mild, 2=Moderate, 3=Severe, 4=Potentially Life Threatening). The self-assessments were based on a questionnaire to determine how bothered the patient was following each injection of elamipretide and included the following parameters: pain, burning sensation, cold sensation, itching, redness, swelling, and bruising.
(§4) All statistical analyses were performed using SAS GRID Linux/SAS Studio (Version 9.4, or higher). PK parameters for elamipretide and its metabolites, M1 and M2, were summarized using descriptive statistics.

healthy subjects [2] = assay: Phase 1 crossover study: self-assessed injection site reactions; type: in vivo, human; settings: 60 mg SQ elamipretide with or without the intervention, across all timepoints, all participants, n = 80
Description: as §1, §2, §3, §4

MRGPRX2 receptor = biological target: T1, MRGPRX2 receptor (Homo sapiens, UniProt Q96LB1); assay: Fluo-4 calcium assay in MRGPRX2 expressing Chem-1 cells; type: cell-based
T1 construct: host or cells: Chem-1 cells (G418-selected)
T1 sequence (Q96LB1 1-330): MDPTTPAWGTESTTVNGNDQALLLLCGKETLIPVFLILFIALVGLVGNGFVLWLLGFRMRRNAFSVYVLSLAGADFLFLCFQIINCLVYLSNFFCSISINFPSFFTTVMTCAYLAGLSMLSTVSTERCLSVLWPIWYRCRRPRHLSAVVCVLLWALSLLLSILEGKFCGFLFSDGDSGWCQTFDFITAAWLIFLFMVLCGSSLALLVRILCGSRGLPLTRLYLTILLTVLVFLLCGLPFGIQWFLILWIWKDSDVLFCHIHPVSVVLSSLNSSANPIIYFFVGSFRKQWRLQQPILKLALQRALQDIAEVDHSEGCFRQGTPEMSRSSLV

healthy subjects [3] = assay: Phase 1 crossover study: safety (TEAEs, vital signs, ECG); type: in vivo, human; settings: Arm 6, 50 mg orally 2 hours prior to 60 mg SQ elamipretide, 10 subjects
Description: The secondary endpoints of this study consisted of PK and safety assessments. After measuring absorption and distribution PK of elamipretide and its metabolites (M1 and M2), comparisons of each Tmax, Cmax, and AUC0-6 following administration of elamipretide with each separate intervention versus Tmax, Cmax, and AUC0-6 following administration of elamipretide alone were performed. Safety assessments consisted of comparison of treatment emergent adverse events (TEAEs) reported following administration of elamipretide with each separate intervention versus TEAEs reported following administration of elamipretide alone. Safety measurements included TEAEs, clinical laboratory tests (e.g., serum chemistry and hematology), 12-lead ECGs, physical exams, and vital signs.

[4] = clinical assessment, vs elamipretide alone

Compound	Clinically assessed Erythema or redness, (%) of Reported Reactions (healthy subjects [1])	Clinically assessed Erythema or redness, Number of Reported Reactions (healthy subjects [1])	Clinically assessed Induration or swelling, (%) of Reported Reactions (healthy subjects [1])	Clinically assessed Induration or swelling, Number of Reported Reactions (healthy subjects [1])	Clinically assessed Pain or tenderness, (%) of Reported Reactions (healthy subjects [1])	Clinically assessed Pain or tenderness, Number of Reported Reactions (healthy subjects [1])	Clinically assessed Pruritis, (%) of Reported Reactions (healthy subjects [1])	Clinically assessed Pruritis, Number of Reported Reactions (healthy subjects [1])	Overall effect of the intervention on ISRs compared to elamipretide alone (healthy subjects [1])	Self-assessed Bruising, (%) of Reported Reactions (healthy subjects [2])	Self-assessed Bruising, Number of Reported Reactions (healthy subjects [2])	Self-assessed Burning sensation, (%) of Reported Reactions (healthy subjects [2])	Self-assessed Burning sensation, Number of Reported Reactions (healthy subjects [2])	Self-assessed Cold Sensation, Number of Reported Reactions (healthy subjects [2])	Self-assessed Itching, (%) of Reported Reactions (healthy subjects [2])	Self-assessed Itching, Number of Reported Reactions (healthy subjects [2])	Self-assessed Pain, (%) of Reported Reactions (healthy subjects [2])	Self-assessed Pain, Number of Reported Reactions (healthy subjects [2])	Self-assessed Redness, (%) of Reported Reactions (healthy subjects [2])	Self-assessed Redness, Number of Reported Reactions (healthy subjects [2])	further results
CN(C)CCC=C1c2ccccc2COc2ccccc21 [Doxepin]	(27.5) %	22	(21.3) %	17	(12.5) %	10	(12.5) %	10	little impact	(0.0) %	0	(7.5) %	6	0.0	(12.5) %	10	(8.8) %	7	(35.0) %	28	Self-assessed Swelling, (%) of Reported Reactions (healthy subjects [2]): (21.3) %; Self-assessed Swelling, Number of Reported Reactions (healthy subjects [2]): 17
C[C@@H]1C[C@H]2[C@@H]3CCC4=CC(=O)C=C[C@]4(C)[C@@]3(Cl)[C@@H](O)C[C@]2(C)[C@@]1(OC(=O)c1ccco1)C(=O)CCl [Mometasone furoate]	(37.5) %	30	(10.0) %	8	(8.8) %	7	(2.5) %	2	most reduced; also recorded: favorably mitigate	(1.3) %	1	(8.8) %	7	0.0	(6.3) %	5	(8.8) %	7	(41.3) %	33	Overall effect of the intervention on ISRs compared to elamipretide alone (healthy subjects [1]; listed as mometasone furoate ointment): Improvement; incidence of induration at 0.5 hours post-elamipretide dose (healthy subjects [1]; [4]): significantly reduced incidence; incidence of induration at 1 hour post-elamipretide dose (healthy subjects [1]; [4]): Trends to significance in reduction; pruritus at 0.5 hours post-dose (healthy subjects [1]; [4]): Trends to significance in reduction; Self-assessed Swelling, (%) of Reported Reactions (healthy subjects [2]): (11.3) %; Self-assessed Swelling, Number of Reported Reactions (healthy subjects [2]): 9
CCNC(=O)[C@@H]1CCCN1C(=O)[C@H](CCCNC(=N)N)NC(=O)[C@H](CC(C)C)NC(=O)[C@@H](CC(C)C)NC(=O)[C@H](Cc1ccc(O)cc1)NC(=O)[C@H](CO)NC(=O)[C@H](Cc1c[nH]c2ccccc12)NC(=O)[C@H](Cc1c[nH]cn1)NC(=O)[C@@H]1CCC(=O)N1 [leuprolide]																					activation of the MRGPRX2 expressing cells (calcium mobilization) (MRGPRX2 receptor; Chem-1 cells, Fluo-4): dose dependent activation
CN(C)CCOC(c1ccccc1)c1ccccc1 [Diphenhydramine]	(26.3) %	21	(6.3) %	5	(2.5) %	2	(10.0) %	8	most reduced; also recorded: potential in reducing induration; also recorded: Improvement	(1.3) %	1	(1.3) %	1	0.0	(11.3) %	9	(2.5) %	2	(25.0) %	20	incidence of induration at 0.5 hours post-elamipretide dose (healthy subjects [1]; [4]): trend to significance in reduction; incidence of induration at 1 hour post-elamipretide dose (healthy subjects [1]; [4]): significantly decreased incidence; Self-assessed Swelling, (%) of Reported Reactions (healthy subjects [2]): (6.3) %; Self-assessed Swelling, Number of Reported Reactions (healthy subjects [2]): 5; mild somnolence, incidence (healthy subjects [3]): 50%; mild somnolence, number of subjects (healthy subjects [3]): 5 subjects
C=CC[C@@H]1/C=C(\C)C[C@H](C)C[C@H](OC)[C@H]2O[C@@](O)(C(=O)C(=O)N3CCCC[C@H]3C(=O)O[C@H](/C(C)=C/[C@@H]3CC[C@@H](O)[C@H](OC)C3)[C@H](C)[C@@H](O)CC1=O)[C@H](C)C[C@@H]2OC [Tacrolimus]	(31.3) %	25	(22.5) %	18	(3.8) %	3	(15.0) %	12	little impact	(10.0) %	8	(1.3) %	1	0.0	(15.0) %	12	(3.8) %	3	(25.0) %	20	Overall effect of the intervention on ISRs compared to elamipretide alone (healthy subjects [1]; listed as tacrolimus): most reduced; Overall effect of the intervention on ISRs compared to elamipretide alone (healthy subjects [1]; listed as tacrolimus ointment): Improvement; Self-assessed Swelling, (%) of Reported Reactions (healthy subjects [2]): (18.8) %; Self-assessed Swelling, Number of Reported Reactions (healthy subjects [2]): 15
O=c1c(O)c(-c2ccc(O)c(O)c2)oc2cc(O)cc(O)c12 [quercetin, 3,3′,4′,5,7-pentahydroxyflavone]																					inhibition of the activation of the MRGPRX2 receptor caused by elamipretide (MRGPRX2 receptor; 100 μM of elamipretide, various concentrations of quercetin): in a dose-dependent manner, inhibit the activation; also recorded: inhibits activation of MRGPRX2
